Results: US20260224494A1, “MILVEXIAN PHARMACEUTICAL COMPOSITIONS” (BRISTOL-MYERS SQUIBB COMPANY, priority 2023, published 2026)
In brackets after ≈: the same amount, converted by molar mass. Read-outs that look alike come from different tables or passages of the source.

Experiments:
[1] = Solubility of milvexian forms in organic solvent systems; type: physicochemical; conditions: for solubility: organic solvent or mixture
Experimental: While heating of the feed solution is a viable solution for production, it is a more complex set-up and with risk of crashing out dissolved solids in case of cold spots and plant safety. Various solvent systems (See Table 11 below) were investigated with primary focus on solvent systems containing DCM due to its low boiling point and excellent solubilization properties.
Based on the data it was determined that 70/30 w/w % DCM/MeOH and 80/20 w/w % were promising solvent mixtures and more accurate solubility determination was carried out for 80/20 w/w % DCM/MeOH for both FORM A and P1.Acetone solvate at 20° C. with the results shown in Table 12 below.
P1.Acetone was the preferred crystalline form of milvexian for physical stability and manufacturability reasons. Based on the above, 80/20 w/w % DCM/MeOH solvent system was selected for development due to highly increase solubility over the 90/10 w/w % Acetone/Water solvent system.

[2] = Acetone/Water 90:10 w/w, cited from earlier work

C[C@@H]1CCC[C@H](n2cnc(-c3cc(Cl)ccc3-n3cc(Cl)nn3)cc2=O)c2cc(ccn2)-c2c(cnn2C(F)F)NC1=O [Milvexian, (5R,9S)-9-(4-(5-chloro-2-(4-chloro-1H-1,2,3-triazol-1-yl)phenyl)-6-oxopyrimidin-1(6H)-yl)-21-(difluoromethvl)-5-methyl-21H-3-aza-1(4,2)-pyridina-2(5,4)-pyrazolacyclononaphan-4-one]
solubility ([1]; 30/70 DCM/MeOH, 20 °C, 30/70 DCM/MeOH, temperature 20, read-out: Solubility in mg/mL solution): 16 mg/mL (≈ 25.5 mM) | solubility ([1]; 30/70 DCM/MeOH, 40 °C, 30/70 DCM/MeOH, temperature 40, read-out: Solubility in mg/mL solution): 26 mg/mL (≈ 41.5 mM) | Solubility description ([1]; 30/70 DCM/MeOH, temperature 20): Sparingly soluble | Solubility description ([1]; 30/70 DCM/MeOH, temperature 40): Sparingly soluble | solubility ([1]; 40/60 DCM/MeOH, 20 °C, 40/60 DCM/MeOH, temperature 20, read-out: Solubility in mg/mL solution): 29 mg/mL (≈ 46.3 mM) | solubility ([1]; 40/60 DCM/MeOH, 40 °C, 40/60 DCM/MeOH, temperature 40, read-out: Solubility in mg/mL solution): 44 mg/mL (≈ 70.2 mM) | Solubility description ([1]; 40/60 DCM/MeOH, temperature 20): Sparingly soluble | Solubility description ([1]; 40/60 DCM/MeOH, temperature 40): Soluble | solubility ([1]; 50/50 DCM/MeOH, 20 °C, 50/50 DCM/MeOH, temperature 20, read-out: Solubility in mg/mL solution): 58 mg/mL (≈ 92.6 mM) | solubility ([1]; 50/50 DCM/MeOH, 40 °C, 50/50 DCM/MeOH, temperature 40, read-out: Solubility in mg/mL solution): 77 mg/mL (≈ 123 mM) | Solubility description ([1]; 50/50 DCM/MeOH, temperature 20): Soluble | Solubility description ([1]; 50/50 DCM/MeOH, temperature 40): Soluble | solubility ([1]; 60/40 DCM/MeOH, 20 °C, 60/40 DCM/MeOH, temperature 20, read-out: Solubility in mg/mL solution): 120 mg/mL (≈ 192 mM) | solubility ([1]; 60/40 DCM/MeOH, 40 °C, 60/40 DCM/MeOH, temperature 40, read-out: Solubility in mg/mL solution): > 200 mg/mL | Solubility description ([1]; 60/40 DCM/MeOH, temperature 20): Freely Soluble | Solubility description ([1]; 60/40 DCM/MeOH, temperature 40): Freely Soluble | solubility ([1]; 70/30 DCM/MeOH, 20 °C, 70/30 DCM/MeOH, temperature 20, read-out: Solubility in mg/mL solution): > 200 mg/mL | solubility ([1]; 70/30 DCM/MeOH, 40 °C, 70/30 DCM/MeOH, temperature 40, read-out: Solubility in mg/mL solution): > 200 mg/mL | Solubility description ([1]; 70/30 DCM/MeOH, temperature 20): Freely Soluble | Solubility description ([1]; 70/30 DCM/MeOH, temperature 40): Freely Soluble | solubility ([1]; 80/20 DCM/MeOH, 20 °C, 80/20 DCM/MeOH, temperature 20, read-out: Solubility in mg/mL solution): > 200 mg/mL | solubility ([1]; 80/20 DCM/MeOH, 40 °C, 80/20 DCM/MeOH, temperature 40, read-out: Solubility in mg/mL solution): > 200 mg/mL | Solubility description ([1]; 80/20 DCM/MeOH, temperature 20): Freely Soluble | Solubility description ([1]; 80/20 DCM/MeOH, temperature 40): Freely Soluble | solubility ([1]; 90/10 DCM/MeOH, 20 °C, 90/10 DCM/MeOH, temperature 20, read-out: Solubility in mg/mL solution): > 200 mg/mL | solubility ([1]; 90/10 DCM/MeOH, 40 °C, 90/10 DCM/MeOH, temperature 40, read-out: Solubility in mg/mL solution): > 200 mg/mL | Solubility description ([1]; 90/10 DCM/MeOH, temperature 20): Freely Soluble | Solubility description ([1]; 90/10 DCM/MeOH, temperature 40): Freely Soluble | solubility ([1]; 100% DCM, 20 °C, 100% DCM, temperature 20, read-out: Solubility in mg/mL solution): 29 mg/mL (≈ 46.3 mM) | solubility ([1]; 100% DCM, 40 °C, 100% DCM, temperature 40, read-out: Solubility in mg/mL solution): 51 mg/mL (≈ 81.4 mM) | Solubility description ([1]; 100% DCM, temperature 20): Sparingly soluble | Solubility description ([1]; 100% DCM, temperature 40): Soluble | solubility ([1]; 100% MeOH, 20 °C, 100% MeOH, temperature 20, read-out: Solubility in mg/mL solution): 4.2 mg/mL (≈ 6.7 mM) | solubility ([1]; 100% MeOH, 40 °C, 100% MeOH, temperature 40, read-out: Solubility in mg/mL solution): 6.6 mg/mL (≈ 10.5 mM) | Solubility description ([1]; 100% MeOH, temperature 20): Slightly soluble | Solubility description ([1]; 100% MeOH, temperature 40): Slightly soluble | solubility ([1]; acetone/water 90/10 w/w %, 20 °C, acetone/water (90/10 w/w %), room temperature, read-out: solubility): 36 mg/mL (≈ 57.5 mM) | solubility ([1]; acetone/water 90/10 w/w %, 49 °C, acetone/water (90/10 w/w %), 49° C., read-out: solubility): 70 mg/mL (≈ 112 mM) | solubility ([2]; 20° C.): 36 mg/mL (≈ 57.5 mM) | solubility ([2]; 50° C.): 70 mg/mL (≈ 112 mM)
